From patent US4622301A, “2-Oxocarboxylic acid reductase and its preparation” (BASF Aktiengesellschaft, priority 1983, dated 1986)
Each block holds one compound with its values, some of them ahead of it.

Legend:
[1] = tested on: 2-oxocarboxylic acid reductase; test: Relative rates of reduction of 2-oxocarboxylic acids, enzyme from P. mirabilis; format: biochemical, Proteus mirabilis; conditions: for Relative rates (of reduction): P. mirabilis enzyme, rate for phenylpyruvate taken as 1
[2] = tested on: 2-oxocarboxylic acid reductase; test: Relative rates of reduction of 2-oxocarboxylic acids, enzyme from P. vulgaris; format: biochemical, Proteus vulgaris; conditions: rate for phenylpyruvate taken as 1
Protocol: In an electrochemical cell, 25 ml of a solution of 100 mM potassium phosphate buffer at pH 7.0, 4 mM methylviologen and 40 mM phenylpyruvate were reduced with 0.5 mg of 2-oxoacid reductase according to Example 3 at a voltage of -700 mV, against a standard calomel electrode. The current of 5.8 mA decreased sharply after 9 hours. According to HPLC analysis, the reaction solution contained 88% of the phenyllactic acid expected. The solution was acidified to pH 1.8 with dilute sulfuric acid and then extracted with ether. […] A pure commercial preparation of (2S)-sodium phenyllactate gave a value of -21.4°, measured under the same conditions. (R)-mandelic acid and (R)-2-hydroxy-4-methylpentanoate were prepared by a similar method.
3-Oxocarboxylic acids and hydroxyacetone are not reduced.

[3] = tested on: 2-oxocarboxylic acid reductase
[4] = tested on: 2-oxocarboxylic acid reductase; test: Initial rates with increasing concentrations of oxidized methylviologen, P. vulgaris enzyme; format: biochemical, Proteus vulgaris; conditions: 2-oxo-4-methylpentanoate, pH 7.0
Protocol: (§1) In the presence of increasing concentrations of MV^++ and 0.15 mM MV^+, the initial rates show the following behavior:
(§2) (0.3 ml of 0.1M trisacetate buffer of pH 7.0, 2 μmole of 2-oxo-4-methylpentanoate, the same amount of enzyme in each case, 0.2 mM of reduced methylviologen and the concentrations of oxidized methylviologen stated in the table were incubated in a 2 mm cell.)

[5] = tested on: 2-oxocarboxylic acid reductase; test: Initial rates with increasing concentrations of oxidized methylviologen, P. mirabilis enzyme; format: biochemical, Proteus mirabilis; conditions: for Initial rate: P. mirabilis, 2-oxo-4-methylpentanoate, pH 7.0
Protocol: as §1, §2

Relative rates (of reduction) [1]: 0.07
Relative rates (of reduction) [2]: 0.04
Structure (SMILES): CC(C)(CO)C(=O)C(=O)O [2-Oxopantoate]

Structure (SMILES): O=C(O)CN(CCN(CC(=O)O)CC(=O)O)CC(=O)O [EDTA]
effect on the activity of the enzyme [3]: not affected

Reduction by the enzyme (in words) [1]: not reduced
Relative rates (of reduction) [1]: 0
Structure (SMILES): CC(=O)CO [Hydroxyacetone]

Structure (SMILES): C[n+]1ccc(-c2cc[n+](C)cc2)cc1 [MV^++, methylviologen]
Initial rate ([4]; MV++ 0.01 mM): 13.3 U/ml
Initial rate ([4]; MV++ 0.08 mM): 24.4 U/ml
Initial rate ([4]; MV++ 0.16 mM): 31.3 U/ml
Initial rate ([4]; MV++ 0.75 mM): 41.5 U/ml
effect on the activity of the enzyme (in words) [5]: can be increased
Initial rate ([5]; MV++ 0.01 mM): 18.1 U/ml
Initial rate ([5]; MV++ 0.08 mM): 41.9 U/ml
Initial rate ([5]; MV++ 0.16 mM): 46.0 U/ml
Initial rate ([5]; MV++ 0.75 mM): 62.0 U/ml
